Source: patent US20060276440A1, “Treatment of inflammatory disorders” (priority 2005, published 2006)
“Also recorded” adds a separate entry of the source. Where two headings read alike, the source gives them in different places. Each block holds one molecule with its values, some of them ahead of it.

Key:
Format in all cases: cell-based, human
OSM signaling = experiment: […] 4A1 cell line (A549) OSM-stimulated luciferase reporter assay; settings: for effect on OSM-mediated reporter activity: up to 1.5 μM; for IC50: Homo sapiens, A549
Procedure: Cell line 4A1 was established in A549 cells (a human lung cancer cell line) using BV32, a vector that carries both the luciferase and GFP reporters. Assay development was performed to optimize the conditions of the OSM-response in the 4A1 […]® line.
(§1) Reporter activities of Sentinel® clones were measured using the Steady-Glo® Luciferase assay system (Promega, Madison, Wis.), according to the manufacturer's instructions, and were normalized to cell numbers based on nucleic acid quantification (CyQuant® cell proliferations assay, Molecular Probes/Invitrogen, Carlsbad, Calif.). In order to identify potential anti-inflammatory compounds, the OSM-responding Sentinel® clone 4A1 was used for a library screen of approximately 1800 compounds.

MMP-13 = experiment: IL-1/OSM-stimulated pro-MMP-13 production in SW-1353 cells (ELISA); settings: for effect on OSM/IL-1-mediated pro-MMP-13 production: up to 1.5 μM; for IC50: Homo sapiens
Source text: To test the compounds identified in the preliminary reporter (luciferase) activity […]® line 4A1 screen for inhibition of OSM signaling in a more physiologically relevant environment, a human cell line involved in an inflammatory disease was adapted. The human cartilage cell line SW-1353 was selected.
In the human cartilage cell line SW-1353, while IL-1 is believed to activate expression of collagenases to a small degree and OSM is believed to have no effect on collagenase expression, a combination of IL-1 and OSM is believed to lead to a synergistic activation of collagenases to much higher levels (S. Cowell et al., Biochem J 331 (Pt 2), 453 (Apr. 15, 1998). Regulation of MMP-13 in SW-1353 cells is, therefore, believed to provide a biomarker which can be used to monitor IL-1/OSM-mediated signal transduction events in secondary assays.
(§2) The same supernatants of culture media used in the primary screen were assayed for IL-1/OSM-stimulated pro-MMP-13 production and MMP-2 production by enzyme-linked immunosorbent assay (ELISA).
(§3) For matrix metalloproteinase (MMP) measures, SW1353 cells were grown to confluence in 24 well plates, washed in DMEM (with Ham's F12) and placed in 500 ul of serum free DMEM/F-12 with 0.2% lactalbumin hydrosylate with and without OsM/IL-1. After 24 hrs, supernatants were collected and the amounts of proMMP13, totalMMP2, and proMMP1 were measured using Quantikine® ELISA kit for human MMPs (R & D systems, Minneapolis, Minn.). All MMP measures were normalized to viable cell numbers based on a tetrazolium (MTS) colorimetric measure (Promega, Madison, Wis.).

4A1 reporter activity = experiment: Activation of 4A1 Sentinel luciferase reporter by cytokines; settings: for stimulatory effect on 4A1 reporter activity: other gp-130-binding cytokine family members, data not shown; for maximum activation of 4A1 luciferase reporter over background / EC50, induced reporter activity of 4A1: 4A1 cells; for EC50, induced reporter activity of 4A1: IL-1
Procedure: as §1
Sentinel lines were developed by utilizing promoter trapping technology in combination with positive and negative selections to efficiently deliver reporter genes into endogenously regulated genetic sites. Using this approach, a Sentinel cell line, 4A1, in A549 lung carcinoma cells that responded specifically to OSM and IL-1 stimulation among a panel of cytokines and active compounds was established (FIG. 9A).
OSM dose-dependently activated the luciferase reporter activity of 4A1 5-7 folds over background with EC50 of approximately 50 ng/ml (FIGS. 9A and B). […] When OSM and IL-1 were added together to 4A1 cells, the reporter activity appeared to be moderately more than the sum of individual activities obtained when OSM and IL-1 added separately (FIG. 9D). However, the luciferase activity of 4A1 appeared to respond predominantly to OSM, because OSM typically produced 5-7-fold maximum activation whereas IL-1 only produced 2-fold maximum activation (FIGS. 9B and C).

MMP-2 = MMP-2 production in SW1353 cells (ELISA, control); settings: SW-1353; FIG. 5
Procedure: MMP-2 production can be used as control for the potential side-effects of compounds. This is because MMP-2 levels are not believed to change in response to IL-1/OSM.
as §2, §3
Multiple control assays were performed to investigate the selectivity of CA4 action. Matrix metalloproteinase-2 (MMP-2) production in SW1353 cells was tested. Mutation of MMP-2 causes a multicentric osteolysis and arthritis syndrome (Martignetti et al., Nat Genet 28, 261-265 (2001) the entire contents of which are incorporated herein by reference), and theoretically its expression should not be affected in treating RA. CA4 at approximately 110 nM had no effect on production of MMP-2 (FIG. 12E). An A549 Sentinel line that responded to TGF-β was then tested.

[1] = 4A1 cell line, primary screen (Table 1), read-out: IC50, inhibition of OSM-stimulated (luciferase) reporter activity
[2] = 4A1 cells, mean (Examples 7, 10), read-out: IC50 values by luciferase reporter activity (OSM-stimulated)
[3] = SW1353 cells, mean (Examples 8, 10), read-out: IC50 values by pro-MMP-13 (OSM/IL-1-mediated production)

- IC50 (OSM signaling; [1]): 20 nM
Molecule: COc1c(C)c2c(c(O)c1C/C=C(\C)CCC(=O)O)C(=O)OC2 [Mycophenolic acid (3), 6-(4-Hydroxy-6-methoxy-7-methyl-3-oxo-5-phthalanyl)-4-methyl-4-hexenoic acid]

- stimulatory effect on 4A1 reporter activity (4A1 reporter activity): no stimulatory effect
Molecule: LIF: member of the gp-130-binding cytokine family

- IC50 (OSM signaling; [2]): 3.4 ± 0.6 nM
- IC50 (MMP-13; [3]): 11.6 ± 5.2 nM
Molecule: CC[C@]1(O)C[C@@H]2CN(CCc3c([nH]c4ccccc34)[C@@](C(=O)OC)(c3cc4c(cc3OC)N(C)[C@H]3[C@@](O)(C(=O)OC)[C@H](OC(C)=O)[C@]5(CC)C=CCN6CC[C@]43[C@@H]65)C2)C1 [Vinbalstine, vinblastine, reference compound]

- IC50 (MMP-13; SW1353, SW-1353, IL-1/OSM-stimulated, secondary screen (Example 2), read-out: IC50, inhibition of MMP-13 (pro-MMP-13) production): 32000 nM
Molecule: Cc1ccc(C(=O)Cn2c3c(sc2=N)CCCC3)cc1 [Pifithrine-alpha (12), 2-(2-imino-4,5,6,7-tetrahydrobenzothiazol-3-yl)-1-p-tolylethanone]
- inhibitory effect on MMP-13 expression compared to MMP-2 expression (MMP-2): greater inhibitory effects on MMP-13 expression compared to MMP-2 expression; also recorded: preferentially inhibit MMP-13 expression compared to MMP-2 expression

- IC50 (OSM signaling; [1]): 800 nM
Molecule: COC(=O)Nc1nc2cc(Sc3ccccc3)ccc2[nH]1 [Fenbendazole (6), [5-(phenylthio)-1H-benzimidazol-2-yl]carbamic acid methyl ester]

- maximum activation of 4A1 luciferase reporter over background (4A1 reporter activity): 5-7 fold
Molecule: OSM: proinflammatory cytokine, 28-kD glycoprotein of the gp130-binding cytokine family

- maximum activation of 4A1 luciferase reporter over background (4A1 reporter activity): 2 fold
- EC50, induced reporter activity of 4A1 (4A1 reporter activity): 0.028 ± 0.01 ng/mL
- EC50, induced reporter activity of 4A1 (4A1 reporter activity; listed as IL-1): 0.028 ng/mL
Molecule: IL-1β: cytokine from Peprotech used to stimulate cells

- IC50 (OSM signaling; [1]): 400 nM
Molecule: Clc1ccc2ncnc(NCc3ccc4c(c3)OCO4)c2c1 [MBCQ (5), 4-[[3,4-(Methylenedioxy)benzyl]amino]-6-chloroquinazoline]

- stimulatory effect on 4A1 reporter activity (4A1 reporter activity): no stimulatory effect
Molecule: IL-6: member of the gp-130-binding cytokine family

- IC50 (OSM signaling; [1]): 1900 nM
Molecule: CC1CCC2(C)CCC3C(=CCC4(C)C3CCC3C(C)(C(=O)O)C(C)CCC34C)C2C1C (stereo not drawn) [β-boswellic acid (7), 1,2,3,4,4a, 5,6,6a, 6b, 7,8,8a, 9, 10, 11, 12, 12a, 14, 14a, 14b-icosahydro-3,4,8a,11,12,14a,14b-heptamethylpicene-4-carboxylic acid]

- IC50 (OSM signaling; [1]): 3500 nM
Molecule: C/C=C(/C(=C/C)c1ccc(O)cc1)c1ccc(O)cc1 [Dienestrol (10), 4-((2E,4E)-4-(4-hydroxyphenyl)hexa-2,4-dien-3-yl)phenol]

- stimulatory effect on 4A1 reporter activity (4A1 reporter activity): no stimulatory effect
B1: IL-11: member of the gp-130-binding cytokine family (protein, UniProt P20809 22-199, looked up)
Interleukin-11: PGPPPGPPRVSPDPRAELDSTVLLTRSLLADTRQLAAQLRDKFPADGDHNLDSLPTLAMSAGALGALQLPGVLTRLRADLLSYLRHVQWLRRAGGSSLKTLEPELGTLQARLDRLLRRLQLLMSRLALPQPPPDPPAPPLAPPSSAWGGIRAAHAILGGLHLTLDWAVRGLLLLKTRL

The remaining lines, values behind:

Molecule: cytochalacin D [reference compound]
- effect on OSM-mediated reporter activity (OSM signaling; 4A1 cells, data not shown): did not have effect
- effect on OSM/IL-1-mediated pro-MMP-13 production (MMP-13; SW1353 cells, data not shown): did not have effect

Molecule: JAK inhibitor I [reference compound]
- effect of pathway inhibitors on OSM-stimulated reporter activity (OSM signaling; 4A1 cells, FIG. 10A-E): inhibited the reporter activity in a dose-dependent manner

Molecule: CC(=O)O[C@H]1C(=O)[C@@]2(C)[C@H]([C@H](OC(=O)c3ccccc3)[C@]3(O)C[C@H](OC(=O)[C@H](O)[C@@H](NC(=O)c4ccccc4)c4ccccc4)C(C)=C1C3(C)C)[C@]1(OC(C)=O)CO[C@@H]1C[C@@H]2O [Taxol, reference compound]
- effect on 4A1 reporter activity (OSM signaling; under 200 nM, data not shown): dose-dependently inhibited
- effect on MMP-13 production (MMP-13; data not shown): no effect

Molecule: C=C1C(=O)[C@@]23[C@H](O)C[C@@H]4C(C)(C)CC[C@H](O)[C@@]4(CO)[C@@H]2CC[C@@H]1[C@H]3O [Kamebakaurin, reference compound]
- effect of pathway inhibitors on OSM-stimulated reporter activity (OSM signaling; 4A1 cells, FIG. 10A-E): inhibited the reporter activity in a dose-dependent manner

Molecule: COc1cc([C@@H]2c3cc4c(cc3[C@H](O)[C@H]3COC(=O)[C@H]23)OCO4)cc(OC)c1OC [Podophyllotoxin, reference compound]
- IC50 (OSM signaling; [2]): 277 nM
- IC50 (MMP-13; [3]): 54.9 nM

Molecule: cytochalacin B [reference compound]
- effect on OSM-mediated reporter activity (OSM signaling; 4A1 cells, data not shown): did not have effect
- effect on OSM/IL-1-mediated pro-MMP-13 production (MMP-13; SW1353 cells, data not shown): did not have effect

Molecule: COC(=O)Nc1nc2ccc(C(=O)c3cccs3)cc2[nH]1 [Nocodazole, reference compound]
- IC50 (OSM signaling; [2]): 104 nM
- IC50 (MMP-13; [3]): > 400 nM

Molecule: C[S+]([O-])c1ccc(-c2nc(-c3ccncc3)c(-c3ccc(F)cc3)[nH]2)cc1 (stereo not shown) [SB203580, reference compound]
- effect of pathway inhibitors on OSM-stimulated reporter activity (OSM signaling): inhibited the reporter activity in a dose-dependent manner

Molecule: O=c1oc2ccccc2c(O)c1Cc1c(O)c2ccccc2oc1=O [Dicumarol (11), 4-hydroxy-3-((4-hydroxy-2-oxo-2H-chromen-3-yl)methyl)-2H-chromen-2-one]
- IC50 (OSM signaling; [1]): 3700 nM

Molecule: COc1cccc(-c2cc(=O)c3ccccc3o2)c1N [PD98059, reference compound]
- effect of pathway inhibitors on OSM-stimulated reporter activity (OSM signaling; 4A1 cells, FIG. 10A-E): inhibited the reporter activity in a dose-dependent manner

Molecule: COc1cc2c(c(OC)c1OC)-c1ccc(OC)c(=O)cc1[C@@H](NC(C)=O)CC2 (atropisomer, axis not shown) [Colchicine (4), colchicine]
- reduction of signal (MMP-13 secondary assay) (MMP-13; at 4 μM, SW-1353): approximately 83%

B2: CNTF: member of the gp-130-binding cytokine family (protein, UniProt P26441 1-200, looked up)
Ciliary neurotrophic factor: MAFTEHSPLTPHRRDLCSRSIWLARKIRSDLTALTESYVKHQGLNKNINLDSADGMPVASTDQWSELTEAERLQENLQAYRTFHVLLARLLEDQQVHFTPTEGDFHQAIHTLLLQVAAFAYQIEELMILLEYKIPRNEADGMPINVGDGGLFEKKLWGLKVLQELSQWTVRSIHDLRFISSHQTGIPARGSHYIANNKKM
- stimulatory effect on 4A1 reporter activity (4A1 reporter activity): no stimulatory effect

B3: CT-1: member of the gp-130-binding cytokine family (protein, UniProt Q16619 1-201, looked up)
Cardiotrophin-1: MSRREGSLEDPQTDSSVSLLPHLEAKIRQTHSLAHLLTKYAEQLLQEYVQLQGDPFGLPSFSPPRLPVAGLSAPAPSHAGLPVHERLRLDAAALAALPPLLDAVCRRQAELNPRAPRLLRRLEDAARQARALGAAVEALLAALGAANRGPRAEPPAATASAASATGVFPAKVLGLRVCGLYREWLSRTEGDLGQLLPGGSA
- stimulatory effect on 4A1 reporter activity (4A1 reporter activity): no stimulatory effect
